According to patent US20250230193A1, “CYCLIC COMPOUND HAVING SELECTIVE KRAS INHIBITORY EFFECT ON HRAS AND NRAS” (CHUGAI SEIYAKU KABUSHIKI KAISHA, priority 2022, published 2025):
Where a SMILES comes first, the peptide text is derived from it. Bridges are numbered along the chain shown (N, C = ends). [ ]: non-standard residue; d: D form. The star is where a group is joined. hPhe(3-Cl-4-CF3) = N[C@@H](CCc1ccc(C(F)(F)F)c(Cl)c1)C(=O)O; NPrPhe(4-CF3) = CCCN[C@@H](Cc1ccc(C(F)(F)F)cc1)C(=O)O; NEtPhe(4-Me) = CCN[C@@H](Cc1ccc(C)cc1)C(=O)O; NMeGly(cPent) = CN[C@H](C(=O)O)C1CCCC1; NMeD = CN[C@@H](CC(=O)O)C(=O)O; NMeL = CN[C@@H](CC(C)C)C(=O)O; Morpholide = C1CN(*)CCO1; NMeAib = CNC(C)(C)C(=O)O; Nle = CCCC[C@H](N)C(=O)O; Piperidide = C1CCN(*)CC1; Ac4c = NC1(C(=O)O)CCC1; NEtG = CCNCC(=O)O; Sar = CNCC(=O)O

Experiments:
[1] = target: GDP-bound NRAS wild-type protein (Homo sapiens, UniProt P01111); experiment: Binding to NRAS by surface plasmon resonance (SPR), Single Cycle Kinetics; conditions: SPR; for NRAS/KRAS (ratio of KD value with respect to NRAS to KD value with respect to KRAS): GDP-bound NRAS wild-type vs GDP-bound KRAS wild-type
[2] = target: GDP-bound HRAS wild-type protein (Homo sapiens, UniProt P01112); experiment: Binding to HRAS by surface plasmon resonance (SPR), Single Cycle Kinetics; conditions: SPR; for HRAS/KRAS (ratio of KD value with respect to HRAS to KD value with respect to KRAS): GDP-bound HRAS wild-type vs GDP-bound KRAS wild-type
Sequence of GDP-bound HRAS wild-type protein (P01112 whole entry): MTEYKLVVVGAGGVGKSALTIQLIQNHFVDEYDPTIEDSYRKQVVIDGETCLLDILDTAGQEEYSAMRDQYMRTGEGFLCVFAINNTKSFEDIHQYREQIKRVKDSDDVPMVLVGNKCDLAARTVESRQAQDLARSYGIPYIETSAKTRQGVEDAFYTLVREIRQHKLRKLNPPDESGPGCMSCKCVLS

Sequence of GDP-bound NRAS wild-type protein (P01111 whole entry): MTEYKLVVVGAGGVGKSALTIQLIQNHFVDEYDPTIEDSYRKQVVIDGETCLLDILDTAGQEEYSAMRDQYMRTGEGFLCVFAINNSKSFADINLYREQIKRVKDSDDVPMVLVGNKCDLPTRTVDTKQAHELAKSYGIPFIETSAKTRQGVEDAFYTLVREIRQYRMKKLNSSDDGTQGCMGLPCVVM

Structure (SMILES): CCCN1C(=O)CN(C)C(=O)CN(CC)C(=O)[C@H]([C@@H](C)CC)NC(=O)[C@H](CC(C)C)N(C)C(=O)C[C@@H](C(=O)N2CCOCC2)NC(=O)[C@H](C2CCCC2)N(C)C(=O)C2(CCC2)NC(=O)[C@@H]2CCCN2C(=O)[C@H](CCc2ccc(C(F)(F)F)c(Cl)c2)NC(=O)CN(C)C(=O)[C@@H]1Cc1ccc(C(F)(F)F)cc1 [PP0332] ([NMeL]I[NEtG][Sar][NPrPhe(4-CF3)][Sar][hPhe(3-Cl-4-CF3)]P[Ac4c][NMeGly(cPent)]D-Morpholide; lactam N-11)
- NRAS/KRAS (ratio of KD for GDP-bound NRAS wild-type to KD for KRAS) [1]: B (a compound having 3 or more and less than 10 is denoted as B)
- HRAS/KRAS (ratio of KD for GDP-bound HRAS wild-type to KD for KRAS) [2]: B (a compound having 3 or more and less than 10 is denoted as B)

Structure (SMILES): CC[C@H](C)[C@@H]1NC(=O)[C@H](CC(C)C)N(C)C(=O)C[C@@H](C(=O)N2CCOCC2)N(C)C(=O)[C@H](C2CCCC2)N(C)C(=O)C2(CCC2)NC(=O)[C@@H]2[C@H](OC)CCN2C(=O)[C@H](CCc2cc(F)c(C(F)(F)F)c(F)c2)NC(=O)CN(C)C(=O)[C@H](Cc2ccc(C(F)(F)F)cc2)N2CCCC[C@@H](C2=O)N(C)C(=O)CN(C)C1=O [PP1084]
- NRAS/KRAS (ratio of KD value with respect to NRAS to KD value with respect to KRAS) ([1]; KD ratio): C (A compound having a KD ratio of 0.1 or more and less than 3 is denoted as C)
- HRAS/KRAS (ratio of KD value with respect to HRAS to KD value with respect to KRAS) ([2]; KD ratio): B (a compound having 3 or more and less than 10 is denoted as B)

Structure (SMILES): CCCO[C@@H]1C[C@H]2C(=O)NC3(CC(C)(C)C3)C(=O)N(C)[C@@H](C3CCCC3)C(=O)N(C)[C@H](C(=O)N(C)CC)CC(=O)N(C)[C@H]3CCCc4ccc(cc4)C[C@@H](C(=O)N(C)CC(=O)N[C@@H](CCc4ccc(C(F)(F)F)c(OC)c4)C(=O)N2C1)N1CC/C=C\C[C@@H](C1=O)N(C)C(=O)CN(C1CC1)C(=O)[C@H]([C@@H](C)CC)NC3=O [PP3088]
- NRAS/KRAS (ratio of KD value with respect to GDP-bound NRAS wild-type protein to KD value with respect to KRAS) ([1]; GDP-bound wild-type proteins): B (a compound having 3 or more and less than 10 is denoted as B)
- HRAS/KRAS (ratio of KD value with respect to GDP-bound HRAS wild-type protein to KD value with respect to KRAS) ([2]; GDP-bound wild-type proteins): B (a compound having 3 or more and less than 10 is denoted as B)

Structure (SMILES): CCO[C@@H]1C[C@H]2C(=O)NC3(CCC3)C(=O)N(C)[C@@H](C3CCCC3)C(=O)N(C)[C@H](C(=O)N(C)C)CC(=O)N(C)[C@@H](CC3CCCC3)C(=O)N[C@@H]([C@@H](C)CC)C(=O)N(C)CC(=O)N(C)[C@H]3CCCCCN(C3=O)[C@@H](Cc3ccc(C(F)(F)F)cc3)C(=O)N(C)CC(=O)N[C@@H](CCc3cc(F)c(C(F)(F)F)c(F)c3)C(=O)N2C1 [PP0670]
- NRAS/KRAS (ratio of KD value with respect to GDP-bound NRAS wild-type protein to KD value with respect to KRAS) [1]: B (a compound having 3 or more and less than 10 is denoted as B)
- HRAS/KRAS (ratio of KD value with respect to GDP-bound HRAS wild-type protein to KD value with respect to KRAS) [2]: B (a compound having 3 or more and less than 10 is denoted as B)

Structure (SMILES): CC[C@H](C)[C@@H]1NC(=O)[C@H](CC(C)C)N(C)C(=O)C[C@@H](C(=O)N(C)CC)N(C)C(=O)[C@H](C2CCCC2)N(C)C(=O)C2(CC(C)(C)C2)NC(=O)[C@@H]2C[C@H](C)CN2C(=O)[C@H](CCc2cc(F)c(C(F)(F)F)c(F)c2)NC(=O)CN(C)C(=O)[C@H](Cc2ccc(C)cc2)N2CC/C=C\C[C@@H](C2=O)N(C)C(=O)[C@@H]2CCCN2C1=O [PP2411]
- NRAS/KRAS (ratio of KD value with respect to NRAS to KD value with respect to KRAS) [1]: A (a compound having 10 or more and less than 20 is denoted as A)
- HRAS/KRAS (ratio of KD value with respect to HRAS to KD value with respect to KRAS) [2]: A (a compound having 10 or more and less than 20 is denoted as A)

Structure (SMILES): CC[C@H](C)[C@@H]1NC(=O)[C@H](CC(C)C)N(C)C(=O)C[C@@H](C(=O)N2CCOCC2)N(C)C(=O)[C@H](C2CCCC2)N(C)C(=O)C2(CCCC2)NC(=O)[C@@H]2CCCN2C(=O)[C@H](CCc2ccc(C(F)(F)F)c(Cl)c2)NC(=O)CN(C)C(=O)[C@H](Cc2ccc(C)cc2)N2CC/C=C\C[C@@H](C2=O)N(C)C(=O)CN(C)C1=O [PP0461]
- NRAS/KRAS (ratio of KD value with respect to GDP-bound NRAS wild-type protein to KD value with respect to KRAS) [1]: A (a compound having 10 or more and less than 20 is denoted as A)
- HRAS/KRAS (ratio of KD value with respect to GDP-bound HRAS wild-type protein to KD value with respect to KRAS) [2]: A (a compound having 10 or more and less than 20 is denoted as A)

Structure (SMILES): CCCC[C@@H]1NC(=O)[C@H](CCc2ccc(C(F)(F)F)c(Cl)c2)NC(=O)CN(C)C(=O)[C@H](Cc2ccc(C)cc2)N(CC)C(=O)CN(C)C(=O)CN(C)C(=O)[C@H]([C@@H](C)CC)NC(=O)[C@H](CC(C)C)N(C)C(=O)C[C@@H](C(=O)N2CCCCC2)N(C)C(=O)[C@H](CC(C)C)NC(=O)C(C)(C)N(C)C1=O [PP0050] ([NMeL]I[Sar][Sar][NEtPhe(4-Me)][Sar][hPhe(3-Cl-4-CF3)][Nle][NMeAib]L[NMeD]-Piperidide; lactam N-11)
- NRAS/KRAS (ratio of KD for GDP-bound NRAS wild-type to KD for KRAS) [1]: B (a compound having 3 or more and less than 10 is denoted as B)
- HRAS/KRAS (ratio of KD for GDP-bound HRAS wild-type to KD for KRAS) [2]: C (A compound having a KD ratio of 0.1 or more and less than 3 is denoted as C)
